Laboratory results: patent publication EP2961395B1, “TARGETED NANOPARTICLES” (CALIFORNIA INSTITUTE OF TECHNOLOGY, priority 2013, dated 2014)
Read-outs that look alike come from different tables or passages of the source.

How the values were obtained:
MDA-MB-231 = assay: Cytotoxicity assay (CellTiter 96 AQueous One) in MDA-MB-231; format: cell-based; settings: Homo sapiens; MDA-MB-231 (HER2 -); 72 h; CPT-containing items based on CPT content
From the text: (§1) Wells containing untreated cells were used as controls.

SKBR-3 = assay: Cytotoxicity assay (CellTiter 96 AQueous One) in SKBR-3; format: cell-based; settings: Homo sapiens, SK-BR-3; SKBR-3 (HER2 +); 72 h; CPT-containing items based on CPT content
From the text: as §1

BT-474 = assay: Cytotoxicity assay (CellTiter 96 AQueous One) in BT-474; format: cell-based; settings: Homo sapiens; BT-474 (HER2 +); 72 h; CPT-containing items based on CPT content
From the text: as §1

[1] = Plasma pharmacokinetics of free CPT in CD2F1 mice (comparison)
Protocol: A DNA ladder is loaded in Lane 1. […] A DNA ladder is loaded in Lane 1. […] Free CPT injected at 10 mg/kg into CD2F1 mice is shown as comparison. (A) Plasma concentration of polymer bound CPT as a function of time. […] (A) Percent injected dose (ID) of total CPT per gram of tumor, heart, liver, spleen, kidney or lung. (B) Percentage of total CPT in each organ that is unconjugated in tumor, heart, liver, spleen, kidney and lung. (C) Total concentration of CPT in plasma.

MCF-7 = assay: Cytotoxicity assay (CellTiter 96 AQueous One) in MCF-7; format: cell-based; settings: Homo sapiens, MCF7; MCF-7 (HER2 -); 72 h; CPT-containing items based on CPT content
From the text: as §1

BT-474 xenograft tumors = system: BT-474 xenograft tumors
Protocol: Treatments began on day 1. […] All treatments were freshly prepared and given via intravenous tail vein injection. Injections were standardized at 150 µl per 20 g body weight of mice. […] Tumor sizes were recorded three times a week using caliper measurements (length x width^2/2) and health of the animals was continuously monitored. Animals were euthanized when tumor volumes exceeded 1000 mm^3. Six weeks after beginning of the treatment, animals were euthanized by CO2 asphyxiation.

[2] = pKa determination by absorbance change on titration; format: physicochemical; settings: 10^-3 M PBA in 0.1 M PBS, titrated with 1 N NaOH, absorbance at 268 nm
Protocol: The pKa of the synthesized PBA compounds were found by measuring the change in absorbance of PBA as it converted from trigonal (in low pH) to tetrahedral (in high pH) conformation. To a solution of 10^-3 M PBA in 0.1 M PBS, pH 7.4 was titrated 1 N NaOH. pH was recorded and corresponding samples were removed for absorbance measurements at 268 nm. Table 2. pKa and binding constants of PBA compounds
pKa values of the modified PBAs were determined by absorbance changes due to conformational change of PBA from trigonal to tetrahedral form as the pH was increased (Table 2). […] Thus, at physiological pH, most of the PBA was present in the reactive anionic tetrahedral form. Binding constants between PBA and MAP were found by competitive binding with Alizarin Red S in 0.1 M PBS, pH 7.4.

[3] = 8 mg/kg (MAP-CPT on CPT basis) i.v. once per week for 3 weeks
[4] = 80 mg/kg i.v. once per week for 3 weeks

Work on `CC[C@@]1(O)C(=O)OCc2c1cc1n(c2=O)Cc2cc3ccccc3nc2-1` [CPT, Camptothecin] yielded an IC50 (MDA-MB-231) of 100 nM, an IC50 (SKBR-3) of 30 nM and an IC50 (BT-474) of 4000 nM. The AUC ([1]; CD2F1, mouse, in vivo, 10 mg/kg) was 1600 ng·h/mL, the “injected dose remaining in circulation” value ([1]; after 8 h, CPT alone at 10 mg/kg) was 0.01% and the IC50 (MCF-7) was 300 nM. For the same molecule, the Mean tumor volume (BT-474 xenograft tumors; [3]) was 808 mm^3, the Median tumor volume (BT-474 xenograft tumors; [3]) was 417 mm^3 and the “NTRD (number of treatment related death)” value (BT-474 xenograft tumors; [3]) was 4. The “Nend (number of animals surviving to end of study)” value (BT-474 xenograft tumors; [3]) was 8/0, the “Neuthan (number of animals euthanized due to exceeding tumor size limit of 1000 mm^3)” value (BT-474 xenograft tumors; [3]) was 4 and the “Nreg to zero (number of animals with tumors regressed to zero at the end of study)” value (BT-474 xenograft tumors; [3]) was 0. The “tumor inhibition compared to control group” value (BT-474 xenograft tumors; [3]) was “no tumor inhibition”.

In the case of `CCc1c2c(nc3ccc(OC(=O)N4CCC(N5CCCCC5)CC4)cc13)-c1cc3c(c(=O)n1C2)COC(=O)[C@]3(O)CC` [Irinotecan], the “NTRD (number of treatment related death)” value (BT-474 xenograft tumors; [4]) is reported as 1, the “Nend (number of animals surviving to end of study)” value (BT-474 xenograft tumors; [4]) is reported as 8/7 and the “Neuthan (number of animals euthanized due to exceeding tumor size limit of 1000 mm^3)” value (BT-474 xenograft tumors; [4]) is reported as 0. The “Nreg to zero (number of animals with tumors regressed to zero at the end of study)” value (BT-474 xenograft tumors; [4]) was 0 and the “tumor inhibition compared to control group” value (BT-474 xenograft tumors; [4]) was “non-significant tumor inhibition”.

With `OB(O)c1ccccc1` [PBA, phenylboronic acid] the pKa [2] was 8.8.
